Data published in paper PMC6589325, “Evaluation of Anti-HIV-1 Integrase and Anti-Inflammatory Activities of Compounds from Betula alnoides Buch-Ham” (Advances in Pharmacological Sciences, 2019).
Read-outs that look alike come from different tables or passages of the source.

Tests used:
HIV-1 IN [1] = molecular target: T1, HIV-1 IN (Human immunodeficiency virus type 1 group M subtype B, UniProt P04585); settings: cited from earlier work; for IC50: read-out: IC50 against HIV-1 IN (converted); for Effect against HIV-1 IN: isolated from Coleus parvifolius
T1 construct: using HIV-1 IN enzymes according to the multiplate integration assay (MIA)

[2] = tested on: LPS-induced nitric oxide production in RAW264.7 cells; assay: Inhibitory effect on LPS-induced nitric oxide (NO) production in RAW264.7 cells (Griess reagent); assay type: cell-based; settings: for IC50: read-out: IC50, inhibition of LPS-induced NO production; for inhibition at 3 µM / inhibition at 10 µM / inhibition at 30 µM / inhibition at 100 µM: read-out: % Inhibition at various concentration (μM), NO production
Method: To evaluate the anti-inflammatory activity, an inhibitory effect on nitric oxide (NO) production was carried out according to the previous report described by Sudsai et al.. Briefly, RAW264.7 cells were seeded onto 96-well plates (1 × 10^5 cells/well) and were maintained to adhere at 37°C for 1 h in a CO2 incubator containing 5% CO2. They were then cultured in RPMI-1640 medium containing lipopolysaccharide (LPS, 100 ng/ml) together with the test compounds at various concentrations (3–100 μM). After 24 h of incubation, the nitrite (NO^2–) concentration in the culture medium was determined as an indicator of NO production using the Griess reagent to assay the accumulation of NO^2–, a stable metabolite of NO. The absorbance was measured using a microplate reader at 570 nm. In this study, NO synthase inhibitor (L-nitro-arginine, L-NA), nuclear translocation of NF-κB inhibitor (caffeic acid phenethyl ester, CAPE) and nonsteroidal anti-inflammatory drug, NSAID (indomethacin), were used as positive controls.

HIV-1 IN [3] = molecular target: T1, HIV-1 IN; assay: HIV-1 IN inhibitory activity, multiplate integration assay (MIA); assay type: biochemical
Method: The anti-HIV IN activity of isolated compounds was determined in an in vitro model using HIV-1 IN enzymes according to the multiplate integration assay (MIA) as previously described. Briefly, a mixture (45 μL) composed of 12 μL of IN buffer (containing 150 mM 3-(N-morpholino)propanesulfonic acid, pH 7.2 (MOPS), 75 mM MnCl2, 5 mM dithiothreitol (DTT), 25% glycerol, and 500 μg/mL bovine serum albumin), 1 μL of 5 pmol/mL digoxigenin-labeled target DNA, and 32 μL of sterilized water was added into each well of a 96-well plate. Subsequently, 6 μL of sample solution in DMSO and 9 μL of a 1/5 dilution of the IN enzyme were added to each well and incubated at 37°C for 80 min. After washing the plate three times with PBS with 0.05% Tween 20 (PBST), 100 μL of 500 mU/mL alkaline phosphatase- (AP-) labeled anti-digoxigenin antibody was added and incubated at 37°C for 1 h. The plates were washed with PBS three times. Then, AP buffer (150 μL) containing 100 mM Tris-HCl (pH 9.5), 100 mM NaCl, 5 mM MgCl2, and 10 mM p-nitrophenyl phosphate was added to each well and incubated at 37°C for 1 h. Finally, the absorbance of p-nitrophenol, the final product of the integration reaction, was measured with a microplate reader (Rayto, RT-2100C) at a wavelength of 405 nm. Suramin, a polyanionic HIV-1 IN inhibitor, was used as a positive control.

[4] = tested on: RAW264.7 macrophage cells; assay: Viability assay of RAW264.7 macrophage cells (MTT); settings: 24 h, cytotoxic when viability less than 80% of control
Method: The cytotoxicity of the test compounds after 24 h of incubation was determined by the colorimetric method described by Sudsai et al.. A volume of 10 μl of MTT solution (5 mg/ml in PBS) was added to each well of 96-well plates and further incubated in a CO2 incubator for 4 h. The formazan products generated by MTT reduction were dissolved in DMSO. At last, the medium was removed, 100 μl of DMSO was then added to each well and thoroughly mixed by gently tapping on the test plate. The absorbance of formazan solution was measured at a wavelength of 570 nm using a microplate reader. The test compounds were considered to be cytotoxic when the viability of the compound-treated group was less than 80% of that in the control (1% DMSO-treated) group.

[5] = read-out: % Inhibition at various concentrations
[6] = mean ± S.E.M. of four determinations, read-out: IC50, anti-HIV-1 integrase activity
[7] = Mus musculus, RAW264.7, 3 μM, LPS 100 ng/ml, 24 h
[8] = Mus musculus, RAW264.7, 10 μM, LPS 100 ng/ml, 24 h
[9] = Mus musculus, RAW264.7, 30 μM, LPS 100 ng/ml, 24 h
[10] = Mus musculus, RAW264.7, 100 μM, LPS 100 ng/ml, 24 h
[11] = Mus musculus, RAW264.7 cells, LPS 100 ng/ml, 24 h

Compound	inhibition at 10 µM (HIV-1 IN [3]; [5]) [%]	inhibition at 30 µM (HIV-1 IN [3]; [5]) [%]	inhibition at 100 µM (HIV-1 IN [3]; [5]) [%]	IC50 (HIV-1 IN [3]; [6]) [µM]	inhibition at 3 µM [2, 7] [%]	inhibition at 10 µM [2, 8] [%]	inhibition at 30 µM [2, 9] [%]	inhibition at 100 µM [2, 10] [%]	IC50 [2, 11] [µM]	further results
O=C(/C=C/c1ccc(O)cc1)CC(=O)/C=C/c1ccc(O)cc1 [bisdemethoxycurcumin]										IC50 (HIV-1 IN [1]; from rhizomes of Boesenbergia kingii): 47.7 µM
NC(=NCCC[C@H](N)C(=O)O)N[N+](=O)[O-] [L-NA, L-nitro-arginine, reference compound]										% Inhibition at various concentration (μM), NO production ([2]; 3 μM, LPS 100 ng/ml, 24 h): 19.3 ± 4.7%; % Inhibition at various concentration (μM), NO production ([2]; 10 μM, LPS 100 ng/ml, 24 h): 22.1 ± 1.9%; % Inhibition at various concentration (μM), NO production ([2]; 30 μM, LPS 100 ng/ml, 24 h): 32.6 ± 3.5%; % Inhibition at various concentration (μM), NO production ([2]; 100 μM, LPS 100 ng/ml, 24 h): 79.7 ± 4.8%; IC50 ([2]; RAW264.7 cells, LPS 100 ng/ml, 24 h): 40.4 ± 6.1 µM
C=C(C)[C@@H]1CC[C@]2(CO)CC[C@]3(C)[C@H](CC[C@@H]4[C@@]5(C)CC[C@H](O)C(C)(C)[C@@H]5CC[C@]43C)[C@@H]12 [Betulin (2), betulin]	41.2 ± 1.5	57.6 ± 1.2	70.7 ± 2.1	17.7 ± 0.6						inhibition at 3 µM ([2]; Mus musculus, RAW264.7, 24 h): 2.9 ± 1.9%; inhibition at 10 µM ([2]; Mus musculus, RAW264.7, 24 h): 13 ± 1.6%; inhibition at 30 µM ([2]; Mus musculus, RAW264.7, 24 h): 58 ± 1.1%; inhibition at 100 µM ([2]; Mus musculus, RAW264.7, 24 h): 81.8 ± 1.2%; IC50 ([2]; Mus musculus, RAW264.7, 24 h): 30.1 ± 0.3 µM; Cytotoxicity to RAW 264.7 cells [4]: caused cytotoxicity
COc1ccc2c(c1)c(CC(=O)O)c(C)n2C(=O)c1ccc(Cl)cc1 [Indomethacin, indomethacin, reference compound]					32 ± 2.6	43.8 ± 1.2	54.1 ± 2	79 ± 1.4	17.6 ± 1.6	
COc1cc(O)c2c(=O)cc(-c3ccc(O)c(O)c3)oc2c1 [luteolin 7-methyl ether]										Effect against HIV-1 IN (HIV-1 IN [1]): potent
O=c1cc(-c2ccc(O)c(O)c2)oc2cc(O)cc(O)c12 [luteolin]										Effect against HIV-1 IN (HIV-1 IN [1]): potent
Oc1cc(O)c2c(c1)O[C@H](c1ccc(O)c(O)c1)[C@@H](O)C2 [(+)-Catechin]										IC50 (HIV-1 IN [1]; isolated from Albizia procera bark): 46.3 µM
Oc1cc(O)c2c(c1)CCc1cc(O)c(O)cc1-2 [2,4,6,7-tetrahydroxy 9,10-dihydrophenanthrene]										IC50 (HIV-1 IN [1]; from bulbils of Dioscorea bulbifera): 14.2 µM
Cc1ccc(C(=O)Nc2ccc(S(=O)(=O)O)c3cc(S(=O)(=O)O)cc(S(=O)(=O)O)c23)cc1NC(=O)c1cccc(NC(=O)Nc2cccc(C(=O)Nc3cc(C(=O)Nc4ccc(S(=O)(=O)O)c5cc(S(=O)(=O)O)cc(S(=O)(=O)O)c45)ccc3C)c2)c1 [Suramin, reference compound]	70.9 ± 1.5	93.3 ± 1.3	99.9 ± 1.7	2.8 ± 0.1						inhibition at 1 µM (HIV-1 IN [3]; 1 μM, read-out: % Inhibition at various concentrations): 32.1 ± 0.6%; inhibition at 3 µM (HIV-1 IN [3]; 3 μM, read-out: % Inhibition at various concentrations): 50.3 ± 1.6%; IC50 (HIV-1 IN [3]; mean ± S.E.M. of four determinations, read-out: IC50, anti-HIV-1 IN activity of B. alnoides extract and its fractions (converted)): 3.01 µM
C[C@H]1[C@H](C)CC[C@]2(C(=O)O)CC[C@]3(C)C(=CC[C@@H]4[C@@]5(C)CC[C@H](O)C(C)(C)[C@@H]5CC[C@]43C)[C@H]12 [Ursolic acid (5), ursolic acid]	31.6 ± 0.9	48.5 ± 1.2	60.2 ± 2.1	35 ± 1	5.4 ± 2.3	10.2 ± 3.2	13.6 ± 3.2	67.1 ± 1.8	68.7 ± 5.9	
C=C(C)[C@@H]1CC[C@]2(C)CC[C@]3(C)[C@H](CC[C@@H]4[C@@]5(C)CC[C@H](O)C(C)(C)[C@@H]5CC[C@]43C)[C@@H]12 [Lupeol (3), lupeol]	12.2 ± 1.3	25.9 ± 2	40.6 ± 1.8	> 100	6 ± 1.7	11.4 ± 2.7	23.4 ± 1.9	78.2 ± 1	47.3 ± 1	IC50, anti-HIV-1 integrase activity (HIV-1 IN [3]; mean ± S.E.M. of four determinations): inactive; Cytotoxicity to RAW 264.7 cells [4]: caused cytotoxicity
C=C(C)[C@@H]1CC[C@]2(C(=O)O)CC[C@]3(C)[C@H](CC[C@@H]4[C@@]5(C)CC[C@H](O)C(C)(C)[C@@H]5CC[C@]43C)[C@@H]12 [Betulinic acid (1), betulinic acid]	39 ± 2.3	53.2 ± 1.2	65.6 ± 2.1	24.8 ± 1.3	14.6 ± 2.3	22.1 ± 1.2	49.4 ± 3.2	79.5 ± 1.7	31 ± 1.9	
CC1(C)CC[C@]2(C(=O)O)CC[C@]3(C)C(=CC[C@@H]4[C@@]5(C)CC[C@H](O)C(C)(C)[C@@H]5CC[C@]43C)[C@@H]2C1 [Oleanolic acid (4), oleanolic acid]	33.4 ± 1.8	49.1 ± 2.2	65.5 ± 1.5		10.9 ± 1.8	18.4 ± 1.2	28.2 ± 3.2	63.4 ± 1	62.8 ± 3.6	IC50 (HIV-1 IN [3]; IC50, anti-HIV-1 integrase activity, mean ± S.E.M. of four determinations): 30.3 ± 1.3 µM
O=C(/C=C/c1ccc(O)c(O)c1)OCCc1ccccc1 [CAPE, caffeic acid phenethyl ester, reference compound]					22.7 ± 3.1	48.6 ± 0.7	66.8 ± 0.5	85.9 ± 1	12.3 ± 0.8	
CN1C[C@H](O)C[C@H]1C(=O)O [N-methyl-trans-4-hydroxy-L-proline]										IC50 (HIV-1 IN [1]; from Aglaia andamanica leaves): 81.3 µM
O=C(O)c1ccc(O)c(O)c1 [protocatechuic acid]										% inhibition of HIV-1 IN (HIV-1 IN [1]; 100 μM): 46.0%
